In brackets after ≈: the same amount, converted by molar mass.

The experiment has as its system P388. In words: Cytotoxicity against mouse P388 cells by MTT assay. In kind it is functional, cell-based. Background: Tetrazolium assays rely on reduction of a dye to a coloured formazan, in cell work by metabolically active cells.
As to `COC(=O)C[C@H]1C(C)(C)[C@H](OC(=O)c2ccccc2)[C@@H]2C=C3C4=CC(=O)O[C@@H](c5ccoc5)[C@]4(C)CC[C@@H]3[C@@]1(C)C2=O` [ERYTHROCARPINE A], inhibition was half-maximal at 2 µg/mL (≈ 3.49 µM) (IC50).

Consider `COC(=O)C[C@H]1C(C)(C)[C@H](OC(=O)c2ccccc2)[C@@H]2C=C3[C@H](CC[C@@]4(C)[C@H](c5ccoc5)OC(=O)C[C@@]34O)[C@@]1(C)C2=O` [ERYTHROCARPINE B], for which it took 6 µg/mL (≈ 10.2 µM) to reach half-maximal inhibition (IC50).

As to `COC(=O)C[C@H]1C(C)(C)[C@H](OC(=O)/C=C/c2ccccc2)[C@@H]2C=C3[C@H](CC[C@@]4(C)[C@H](c5ccoc5)OC(=O)C[C@@]34O)[C@@]1(C)C2=O` [ERYTHROCARPINE C], 9.9 µg/mL (≈ 16.1 µM) corresponded to half-maximal inhibition (IC50).

For `COC(=O)C[C@H]1[C@@]2(C)CO[C@]3(O)[C@@H](C=C4[C@H](CC[C@@]5(C)[C@H](c6ccoc6)OC(=O)C[C@@]45O)[C@]13C)[C@H]2OC(=O)/C=C/c1ccccc1` [ERYTHROCARPINE E], the IC50 was 16 µg/mL (≈ 25.3 µM).

For `COC(=O)C[C@H]1[C@@]2(C)CO[C@]3(O)[C@@H](C=C4C5=CC(=O)O[C@@H](c6ccoc6)[C@]5(C)CC[C@@H]4[C@]13C)[C@H]2OC(=O)/C=C/c1ccccc1` [ERYTHROCARPINE D], the IC50 was 10 µg/mL (≈ 16.3 µM).

The compound `CO[C@@]12[C@H](COC(N)=O)C3=C(C(=O)C(C)=C(N)C3=O)N1C[C@@H]1N[C@@H]12` [MITOMYCIN] had an IC50 of 0.15 µg/mL (≈ 0.449 µM).

For orientation: IC50 means the concentration that gives 50% inhibition. A low value points to inhibition by little substance.

The values above are taken from ChEMBL document CHEMBL1149627, “Erythrocarpines A-E, new cytotoxic limonoids from Chisocheton erythrocarpus” (Bioorg Med Chem, 2007).
